{
  "source": "patent US20220389515A1",
  "about": "“USE OF BIOMARKERS TO PREDICT CLINICAL SENSITIVITY TO 2-(4-CHLOROPHENYL)-N-((2-(2,6-DIOXOPIPERIDIN-3-YL)-1-OXOISOINDOLIN-5-YL)METHYL)-2,2-DIFLUOROACETAMIDE” (priority 2019, published 2022)",
  "key": {"AML cell lines": {"tested_on": "AML cell lines", "experiment": "Cell proliferation assay (CTG) in AML cell lines, 72 hours", "format": "cell-based, human", "details": "11 AML cell lines, Day 3", "method": "On Day 3, cell proliferation was assessed by the Cell-Titer Glo (CTG) assay.\nFor cell proliferation assays, human cancer cell lines cultured in the growth medium recommended by the vendor (as described above) were seeded into black 384-well plates containing DMSO or test compounds. The seeding density of each cell line was optimized to allow for cell growth in the linear growth phase during a 3-day culture period. To test the compounds' effect on cell proliferation in AML cell lines, 5,000 to 10,000 cells per well in 200 L complete culture media were seeded into black 96-well plates containing DMSO or test compounds. After 72 hours, cell proliferation was assessed using the CTG assay according to the manufacturer's instructions. […] Relative cell proliferation was normalized against cell growth values on day 4. The growth inhibitory curve was processed and graphed using GraphPad Prism Version 7 (P<0.05, unpaired two-sided t-test, is considered as significant)."}, "GSPT1": {"molecular_target": "T1, GSPT1 (Homo sapiens, UniProt P15170+Q96SW2)", "T1 construct": "endogenous in cells; host or cells: KG-1 (TMT proteomics); KG1, U937 / U937-Cas9, MOLM-13, OCI-AML2 (immunoblots)", "T1 sequence (P15170 1-637 isoform P15170-3)": "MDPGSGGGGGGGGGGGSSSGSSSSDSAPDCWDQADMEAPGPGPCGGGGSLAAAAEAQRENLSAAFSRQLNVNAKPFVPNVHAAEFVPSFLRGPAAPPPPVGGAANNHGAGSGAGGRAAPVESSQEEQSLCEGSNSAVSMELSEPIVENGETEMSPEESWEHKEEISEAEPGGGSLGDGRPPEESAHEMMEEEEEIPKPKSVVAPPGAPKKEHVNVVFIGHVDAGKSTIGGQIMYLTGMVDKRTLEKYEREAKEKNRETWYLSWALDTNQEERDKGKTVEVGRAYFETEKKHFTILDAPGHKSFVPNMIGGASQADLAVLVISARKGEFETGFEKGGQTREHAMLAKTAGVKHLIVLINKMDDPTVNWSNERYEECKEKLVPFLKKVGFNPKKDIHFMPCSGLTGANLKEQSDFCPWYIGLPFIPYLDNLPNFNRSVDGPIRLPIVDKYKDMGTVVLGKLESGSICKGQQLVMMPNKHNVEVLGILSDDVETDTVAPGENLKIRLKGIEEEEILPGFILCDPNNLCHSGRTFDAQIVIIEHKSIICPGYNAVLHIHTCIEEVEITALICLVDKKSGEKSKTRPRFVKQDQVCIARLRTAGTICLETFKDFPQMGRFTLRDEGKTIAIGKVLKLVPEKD", "T1 sequence (Q96SW2 whole entry)": "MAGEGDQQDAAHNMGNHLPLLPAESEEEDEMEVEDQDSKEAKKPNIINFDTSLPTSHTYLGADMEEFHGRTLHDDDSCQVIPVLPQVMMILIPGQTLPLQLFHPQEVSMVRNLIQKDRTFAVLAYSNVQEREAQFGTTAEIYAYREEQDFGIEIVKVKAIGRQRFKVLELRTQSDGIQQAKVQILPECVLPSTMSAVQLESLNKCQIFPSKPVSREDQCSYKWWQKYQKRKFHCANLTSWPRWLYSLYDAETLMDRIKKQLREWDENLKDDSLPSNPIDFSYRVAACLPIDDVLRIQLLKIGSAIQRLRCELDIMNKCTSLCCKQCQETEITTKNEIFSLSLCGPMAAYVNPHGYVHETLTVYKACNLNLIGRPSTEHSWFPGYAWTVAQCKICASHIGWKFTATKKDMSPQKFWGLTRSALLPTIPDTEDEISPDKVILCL", "T1 sequence (Q16531 whole entry partner)": "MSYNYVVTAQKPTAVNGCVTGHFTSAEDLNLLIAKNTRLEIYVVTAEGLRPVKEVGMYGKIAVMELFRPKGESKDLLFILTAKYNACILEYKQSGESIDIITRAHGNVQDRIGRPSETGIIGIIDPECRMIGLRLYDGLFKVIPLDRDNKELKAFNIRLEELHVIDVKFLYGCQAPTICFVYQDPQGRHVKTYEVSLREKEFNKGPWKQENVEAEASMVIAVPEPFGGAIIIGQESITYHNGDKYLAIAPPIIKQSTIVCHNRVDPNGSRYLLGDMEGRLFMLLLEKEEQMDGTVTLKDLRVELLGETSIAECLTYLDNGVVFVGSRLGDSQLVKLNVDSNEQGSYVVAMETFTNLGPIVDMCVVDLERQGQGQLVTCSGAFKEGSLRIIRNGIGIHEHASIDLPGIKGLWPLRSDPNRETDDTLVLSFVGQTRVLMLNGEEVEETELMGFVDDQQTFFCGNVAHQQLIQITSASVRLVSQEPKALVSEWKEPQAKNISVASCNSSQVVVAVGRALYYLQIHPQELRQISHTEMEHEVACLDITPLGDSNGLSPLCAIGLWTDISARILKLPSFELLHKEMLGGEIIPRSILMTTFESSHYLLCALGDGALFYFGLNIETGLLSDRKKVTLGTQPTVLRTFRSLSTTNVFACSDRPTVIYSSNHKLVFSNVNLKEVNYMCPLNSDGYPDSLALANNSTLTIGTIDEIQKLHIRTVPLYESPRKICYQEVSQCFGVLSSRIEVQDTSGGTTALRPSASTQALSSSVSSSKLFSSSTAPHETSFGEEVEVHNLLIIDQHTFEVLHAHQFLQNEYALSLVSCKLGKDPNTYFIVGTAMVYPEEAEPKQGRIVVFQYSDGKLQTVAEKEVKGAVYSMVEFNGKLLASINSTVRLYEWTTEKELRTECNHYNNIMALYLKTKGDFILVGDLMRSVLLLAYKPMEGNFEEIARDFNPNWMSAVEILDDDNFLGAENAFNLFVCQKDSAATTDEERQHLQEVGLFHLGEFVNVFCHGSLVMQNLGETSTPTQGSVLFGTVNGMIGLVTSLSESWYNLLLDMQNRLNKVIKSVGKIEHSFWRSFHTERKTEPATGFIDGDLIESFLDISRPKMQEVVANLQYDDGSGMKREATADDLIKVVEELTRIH", "experiment": "Tandem mass tag (TMT) quantitative mass spectrometry of the global proteome in KG-1", "format": "cell-based", "details": "0.1 μM, 4 hours", "protocol": "(§1) FIG. 2A illustrates the volcano plot of differentially abundant proteins in response to Compound D treatment relative to the DMSO control. KG1 cells were treated with DMSO or 100 nM Compound D for 4 hours and subjected to TMT proteomics analysis. The X-axis denotes the log 2-fold change of Compound D versus the DMSO control for each protein. P-values were corrected for multiple hypothesis testing using the Benjamini-Hoschberg method to arrive at an adjusted-P-value (adj-P, also known as a false discovery rate). The y-axis denotes the −log 10 (adj-P) values indicating statistical significance such that proteins lying above the dotted red line are statistically significant findings with adjusted P-values<0.05. FIG. 2B illustrates the immunoblot analysis of KG1 and U937 cells treated with DMSO or Compound D for 4 hours. Where indicated, cells were pretreated with Bortezomib or MLN4924 for 30 minutes. […]\nLike all other cereblon modulators, Compound D contains a glutarimide ring (FIG. 1A) that can bind cereblon and redirect it to target neosubstrates for degradation. Thus, the effect of Compound D on the global proteome in AML cell line KG-1 was assessed using tandem mass tag (TMT) quantitative mass spectrometry."}, "[1]": {"tested_on": "U937, OCI-AML2 and MOLM-13", "experiment": "Cell proliferation of parental, CRBN-ablated and GSPT1-G575N expressing AML cells", "format": "cell-based, human", "protocol": "as §1\nFor cell proliferation assays, human cancer cell lines cultured in the growth medium recommended by the vendor (as described above) were seeded into black 384-well plates containing DMSO or test compounds. […] After 72 hours, cell proliferation was assessed using the CTG assay according to the manufacturer's instructions. […]"}, "GCN2-mediated ISR": {"tested_on": "GCN2-mediated ISR", "experiment": "Immunoblot analysis of integrated stress response and apoptosis markers", "format": "cell-based, human", "protocol": "(§2) The U937 GCN2−/− cell line is derived from a single clone of U937 parental cells stably infected with a lentiviral CRISPR vector targeting GCN2. […] Cells were incubated with DMSO or 200 nM Compound D and lysed at the indicated time points. Arrows pointing to bands in the blot on the right designate the cleaved forms of caspase-3. […] The U937 GCN2−/− cell line is derived from a single clone of U937 parental cells stably infected with a lentiviral CRISPR vector targeting GCN2. […] Cells were treated with DMSO or Compound D for 24 hours. On day 3 after Compound D treatment, cell proliferation was assessed by CTG. Result shown in all figure panels is representative of at least three biological replicates. Data in FIGS. 13C, 13D and 13E are shown as mean±SD, n=3 technical replicates.\nTo determine if the activation of the ISR by Compound D is solely mediated by GCN2, the effect of GCN2 ablation on Compound D response was evaluated."}, "[2]": {"tested_on": "ATF4 target genes ATF3, CHOP and DDIT4", "experiment": "Quantitative RT-PCR of ATF4 target genes", "format": "cell-based, human", "protocol": "as §2\nSpecifically, following incubation with DMSO or Compound D, cells were collected via centrifugation at 2000 rpm for 2 minutes. Cell pellets were then washed once in ice-cold PBS and snap-frozen in liquid nitrogen. […] The cDNA transcripts of GADPH, DDIT3 (CHOP), DDIT4 (REDD), and ATF3 were quantified by the ViiA™ 7 Real-Time PCR System using TaqMan Gene Expression Assay probes (Invitrogen). The cDNA level of various CRBN transcripts was quantified using RT^2 SYBR Green qPCR Mastermixes (Qiagen). […]"}},
  "data": [
    {"smiles": "O=C1CCC(N2Cc3cc(CNC(=O)C(F)(F)c4ccc(Cl)cc4)ccc3C2=O)C(=O)N1", "note": "(stereo not shown) [Compound D, 2-(4-chlorophenyl)-N-((2-(2,6-dioxopiperidin-3-yl)-1-oxoisoindolin-5-yl)methyl)-2,2-difluoroacetamide]", "values": [
      {"measurement": "anti-proliferative activity", "setting": "AML cell lines", "value": "potent anti-proliferative activity in 10 out of 11 AML cell lines"},
      {"measurement": "GSPT1 protein abundance", "setting": "GSPT1", "value": "significant reduction of GSPT1 protein abundance"},
      {"measurement": "effect on the rest of the proteome", "setting": "GSPT1", "value": "minimal effect on the rest of the proteome"},
      {"measurement": "anti-proliferative effect after ablation of CRBN", "setting": "[1]; CRBN knockout U937, OCI-AML2, MOLM-13", "value": "completely abolished the anti-proliferative effect"},
      {"measurement": "antiproliferative response in cells overexpressing GSPT1-G575N", "setting": "[1]; U937, OCI-AML2, MOLM-13, GSPT1 stabilization", "value": "completely inhibited the response to Compound D"},
      {"measurement": "activation of the ISR (eIF2a phosphorylation, ATF4 and targets)", "setting": "GCN2-mediated ISR; U937 24 hours, KG-1 200 nM", "value": "triggered the rapid phosphorylation of eIF2a, accumulation of ATF4 and its transcriptional targets DDIT4, CHOP and ATF3"},
      {"measurement": "apoptosis (cleaved caspase-3)", "setting": "GCN2-mediated ISR; U937, KG-1 200 nM", "value": "subsequent induction of apoptosis"},
      {"measurement": "ISR activation and caspase-3 cleavage after GCN2 knockout", "setting": "GCN2-mediated ISR; U937 GCN2-/-, 24 hours", "value": "inhibited the phosphorylation of eIF2a, induction of ATF4 and its target gene DDIT4, and the cleavage of caspase-3"},
      {"measurement": "mRNA level of ATF4 target genes", "setting": "[2]; U937 24 hours, KG-1 200 nM for 2, 4 or 6 hours", "value": "marked induction of ATF4 target genes ATF3, CHOP and DDIT4 at the mRNA level"},
      {"measurement": "induction of ATF3 and CHOP after GCN2 loss", "setting": "[2]; U937 GCN2-/-, 24 hours", "value": "largely, but not completely, blocked the induction of other ATF4 target genes ATF3 and CHOP"}
    ]}
  ]
}
